Experimental findings from PubChem BioAssay (NCI) are described below.

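In this assay, cells in 96-well plates receive the compound at five concentrations for 48 hours. Endpoints are linearly interpolated between the surrounding concentrations. Here, GI50 denotes the concentration required for 50% inhibition of growth. Definition used: TGI = concentration required for complete inhibition of growth.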

Test systems include OVCAR-3 ovarian; RPMI-8226 leukemia; SF-268 CNS; RXF 393 renal; SK-MEL-2 melanoma; UACC-257 melanoma; HCC-2998 colon; HCT-116 colon; CAKI-1 renal; SK-MEL-5 melanoma.
Assay in all cases: growth of human tumour cells (NCI), 48 h

Regarding `NC(=Nc1ccc(N)cc1)C(N)=Nc1ccc(N)cc1`, the GI50 with OVCAR-3 ovarian is 33.3 µM; with RPMI-8226 leukemia, above 100 µM; in the assay on SF-268 CNS it was above 100 µM; with RXF 393 renal, above 100 µM; with SK-MEL-2 melanoma, above 100 µM; in the assay on UACC-257 melanoma, above 100 µM. The GI50 in the assay with HCC-2998 colon was above 100 µM; in the assay with HCT-116 colon, 92.5 µM; in the assay on CAKI-1 renal it was 52.6 µM; in the assay on SK-MEL-5 melanoma it was above 100 µM. Further, the TGI in the assay on OVCAR-3 ovarian, in the assay with RPMI-8226 leukemia, in the assay on SF-268 CNS, in the assay with RXF 393 renal, with SK-MEL-2 melanoma and in the assay with UACC-257 melanoma was above 100 µM in each case. The TGI in the assay on HCC-2998 colon, in the assay on HCT-116 colon, in the assay with CAKI-1 renal and in the assay with SK-MEL-5 melanoma was above 100 µM throughout.

For `CCOC(=O)c1cnn2c3ccccc3n(S(=O)(=O)c3ccc(OC)cc3)c12`, the GI50 with OVCAR-3 ovarian is 0.181 µM; with RPMI-8226 leukemia, 0.37 µM; in the assay with SF-268 CNS it was 2.33 µM; with RXF 393 renal, 0.232 µM; in the assay with SK-MEL-2 melanoma, 4.03 µM; with UACC-257 melanoma, 17.1 µM. Besides, the GI50 with HCC-2998 colon is 0.349 µM; with HCT-116 colon it was 0.305 µM; with CAKI-1 renal, 0.204 µM; in the assay on SK-MEL-5 melanoma, 0.319 µM. Also, the TGI with OVCAR-3 ovarian was 0.493 µM; in the assay with RPMI-8226 leukemia, 28.2 µM; in the assay on SF-268 CNS it was above 100 µM; in the assay on SK-MEL-2 melanoma it was above 100 µM; with UACC-257 melanoma, above 100 µM; with HCC-2998 colon, 30.1 µM. Also, the TGI with HCT-116 colon is above 50.4 µM; with CAKI-1 renal, above 83.7 µM; in the assay with SK-MEL-5 melanoma it was 2.27 µM.

`CCS(=O)(=O)c1ccc(OC)c(Nc2ncc(-c3ccccc3Cl)o2)c1`: the GI50 in the assay on OVCAR-3 ovarian is 9.38 µM; in the assay on RPMI-8226 leukemia, 13.4 µM; in the assay with SF-268 CNS, 11.7 µM; in the assay with RXF 393 renal, 7.35 µM; with SK-MEL-2 melanoma, 9.06 µM; in the assay on UACC-257 melanoma, above 25 µM. In addition, the GI50 was 18.1 µM in the assay with HCC-2998 colon, 10.1 µM with HCT-116 colon, 24.3 µM in the assay on CAKI-1 renal and 7.4 µM in the assay on SK-MEL-5 melanoma. Also, the TGI with OVCAR-3 ovarian was above 25 µM; with RPMI-8226 leukemia, above 25 µM; in the assay on SF-268 CNS, above 25 µM; in the assay on RXF 393 renal, above 21.7 µM; in the assay on SK-MEL-2 melanoma it was above 21.6 µM; in the assay on UACC-257 melanoma, above 25 µM. For the same compound, the TGI in the assay with HCC-2998 colon is above 25 µM; in the assay with HCT-116 colon, above 25 µM; with CAKI-1 renal it was above 25 µM; with SK-MEL-5 melanoma, above 19.4 µM.

For `Nc1ccccc1C#C/C=C\C#Cc1c(F)c(F)c(F)c(F)c1F`, the GI50 was 15.3 µM with OVCAR-3 ovarian; 1.25 µM in the assay with RPMI-8226 leukemia; 14.1 µM in the assay with SF-268 CNS; 4.74 µM with RXF 393 renal; 26.3 µM with SK-MEL-2 melanoma; 17.9 µM in the assay on UACC-257 melanoma. Further, the GI50 in the assay on HCC-2998 colon is 19.4 µM; with HCT-116 colon it was 16 µM; in the assay on CAKI-1 renal, 10.9 µM; with SK-MEL-5 melanoma it was 20 µM. In addition, the TGI in the assay on OVCAR-3 ovarian worked out at 32.9 µM; with RPMI-8226 leukemia it was 21.7 µM; with SF-268 CNS it was 50.9 µM; in the assay on RXF 393 renal, 22 µM; in the assay with SK-MEL-2 melanoma it was 88.9 µM; in the assay with UACC-257 melanoma, 38.6 µM. For the same compound, the TGI was found to be 37.6 µM in the assay with HCC-2998 colon, 31.1 µM in the assay on HCT-116 colon, 29.1 µM with CAKI-1 renal and 45 µM with SK-MEL-5 melanoma.

For the compound `COC(=O)/C=c1\s/c(=C\C(=O)OC)c2ccccc12`, the TGI with OVCAR-3 ovarian, in the assay on RPMI-8226 leukemia, with SF-268 CNS, with RXF 393 renal, with SK-MEL-2 melanoma and with UACC-257 melanoma was above 100 µM throughout. Moreover, the TGI with HCC-2998 colon, with HCT-116 colon, in the assay with CAKI-1 renal and in the assay on SK-MEL-5 melanoma was above 100 µM in each case.

In the case of `O=C(NCc1ccco1)c1cccc(NC2=C(Cl)C(=O)N(Cc3ccccc3)C2=O)c1`, the GI50 with OVCAR-3 ovarian was 2.44 µM; in the assay on RPMI-8226 leukemia, 1.06 µM; in the assay with SF-268 CNS it was above 100 µM; with RXF 393 renal, 4.22 µM; in the assay on SK-MEL-2 melanoma it was 3.3 µM; in the assay with UACC-257 melanoma, 3.86 µM. Besides, the GI50 in the assay on HCC-2998 colon was 10.8 µM; in the assay with HCT-116 colon it was 3.86 µM; in the assay on CAKI-1 renal, 0.232 µM; with SK-MEL-5 melanoma, 5.26 µM. The TGI in the assay with OVCAR-3 ovarian was 7.71 µM; in the assay on RPMI-8226 leukemia, 3.29 µM; in the assay with SF-268 CNS, above 100 µM; in the assay with RXF 393 renal, 26.2 µM; in the assay on SK-MEL-2 melanoma, 20.7 µM; in the assay on UACC-257 melanoma it was 26.5 µM. For the same compound, the TGI with HCC-2998 colon turned out to be 25.6 µM; with HCT-116 colon it was 15.1 µM; in the assay with CAKI-1 renal it was 1.45 µM; with SK-MEL-5 melanoma, 23.3 µM.

As for `COc1cccc2c1C(=O)OC2c1cccc2ccccc12` (centres undefined), the TGI in the assay on OVCAR-3 ovarian was above 100 µM; in the assay on RPMI-8226 leukemia, above 100 µM; in the assay on SF-268 CNS, above 100 µM; in the assay with RXF 393 renal, 98.6 µM; in the assay with SK-MEL-2 melanoma, above 100 µM; in the assay with UACC-257 melanoma, above 100 µM. The TGI with HCC-2998 colon, in the assay with HCT-116 colon, in the assay on CAKI-1 renal and in the assay on SK-MEL-5 melanoma was above 100 µM throughout.

Take `O=C(CCc1nnc2s/c(=C\c3ccccc3Cl)c(=O)n12)Nc1cc(Cl)ccc1Cl`: the TGI with OVCAR-3 ovarian, with RPMI-8226 leukemia, in the assay with SF-268 CNS, in the assay on RXF 393 renal, with SK-MEL-2 melanoma and in the assay on UACC-257 melanoma was above 100 µM in each case. Also, the TGI with HCC-2998 colon, with HCT-116 colon, with CAKI-1 renal and in the assay with SK-MEL-5 melanoma was above 100 µM each time.
